In US11576922B2, “CD73 inhibitors” (ORIC Pharmaceuticals, Inc., priority 2017, dated 2023):

The compounds below were run against T1, CD73 (Homo sapiens, UniProt P21589) (assay: Example A1: Biochemical Assay (CD73 inhibition, Malachite Green detection of AMP hydrolysis)). Details: Biochemical IC50, CD73 0.3208 nM, AMP 15 μM, Tris-HCl pH 7.4, Malachite Green, absorbance 620 nm.
T1 sequence (P21589 27-549): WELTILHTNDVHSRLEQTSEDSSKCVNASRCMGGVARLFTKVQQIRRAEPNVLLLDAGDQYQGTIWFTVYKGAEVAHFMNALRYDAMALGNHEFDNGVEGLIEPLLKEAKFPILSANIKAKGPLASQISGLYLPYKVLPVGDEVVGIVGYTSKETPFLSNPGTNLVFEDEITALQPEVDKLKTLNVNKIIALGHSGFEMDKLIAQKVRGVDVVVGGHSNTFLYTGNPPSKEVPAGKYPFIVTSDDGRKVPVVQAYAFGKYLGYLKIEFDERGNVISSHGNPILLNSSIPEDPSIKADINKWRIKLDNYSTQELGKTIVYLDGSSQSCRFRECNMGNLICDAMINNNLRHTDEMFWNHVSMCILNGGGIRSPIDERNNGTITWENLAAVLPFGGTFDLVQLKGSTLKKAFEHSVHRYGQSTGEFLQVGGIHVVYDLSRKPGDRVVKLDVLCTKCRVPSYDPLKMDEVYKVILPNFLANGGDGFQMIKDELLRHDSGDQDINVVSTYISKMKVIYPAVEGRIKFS
Protocol: Example A1: Biochemical Assay
Assay Reaction Conditions
• Assay Volume: 70 μl • Reaction Volume: 50 μl • CD73: 0.3208 nM • AMP: 15 μM • Assay Buffer: 2 5 mM Tris-HCL, pH 7.4, 0.01% Brij-35, 0.01% BSA, 5 mM MgCl2 Assay Procedure:
Made dose titration of testing compounds in assay buffer, 10 points ½ log titrations in duplicates starting at 100 μM.
Added 25 μl of CD73 to each well for a final concentration of […].
Incubated at RT for 15 min.
Added 25 μl of AMP to each well for a final concentration of 15 μM.
Incubated at RT for 10 min.
Added 10 μl of Malachite Green Reagent A, incubate at RT for 10 min.
Added 10 μl of Malachite Green Reagent B, incubate at RT for 45 min.
Read the Absorbance on Envision plate reader using excitation filter: Cy5 […].
The ability of the compounds disclosed herein to inhibit CD73 activity was quantified and the respective IC50 values were determined. Table 1 provides the biochemical IC50 values of compounds disclosed herein.
For `O=P(O)(O)C[P@](=O)(OC[C@H]1O[C@@H](n2nnc3c(NCc4ccccc4Cl)nc(Cl)nc32)[C@H](O)[C@@H]1O)Oc1ccccc1` [Example 32, (((S)-(((2R,3S,4R,5R)-5-(5-chloro-7-((2-chlorobenzyl)amino)-3H-[1,2,3]triazolo[4,5-d]pyrimidin-3-yl)-3,4-dihydroxytetrahydrofuran-2-yl)methoxy)(phenoxy)phosphoryl)methyl) phosphonic acid], the IC50 was > 1000 nM. Work on `O=P(O)(O)C[P@@](=O)(OC[C@H]1O[C@@H](n2nnc3c(NCc4ccccc4Cl)nc(Cl)nc32)[C@H](O)[C@@H]1O)Oc1ccccc1` [Example 33, (((R)-(((2R,3S,4R,5R)-5-(5-chloro-7-((2-chlorobenzyl)amino)-3H-[1,2,3]triazolo[4,5-d]pyrimidin-3-yl)-3,4-dihydroxytetrahydrofuran-2-yl)methoxy)(phenoxy)phosphoryl)methyl) phosphonic acid] yielded an IC50 of 100 to 1000 nM.

Same assay, conditions: CD73 0.3208 nM, AMP 15 μM, Tris-HCl pH 7.4, Malachite Green, absorbance 620 nm; read-out: Biochemical IC50
`COP(=O)(CP(=O)(O)O)OC[C@H]1O[C@@H](n2nnc3c(NCc4ccccc4Cl)nc(Cl)nc32)[C@H](O)[C@@H]1O` (stereo partly drawn) [Example 26, (((((2R,3S,4R,5R)-5-(5-chloro-7-((2-chlorobenzyl)amino)-3H-[1,2,3]triazolo[4,5-d]pyrimidin-3-yl)-3,4-dihydroxytetrahydrofuran-2-yl)methoxy)(methoxy)phosphoryl)methyl) phosphonic acid] showed an IC50 of 100 to 1000 nM. `CO[P@](=O)(CP(=O)(O)O)OC[C@H]1O[C@@H](n2nnc3c(NCc4ccccc4Cl)nc(Cl)nc32)[C@H](O)[C@@H]1O` [Example 27, (((R)-(((2R,3S,4R,5R)-5-(5-Chloro-7-((2-chlorobenzyl)amino)-3H-[1,2,3]triazolo[4,5-d]pyrimidin-3-yl)-3,4-dihydroxytetrahydrofuran-2-yl)methoxy)(methoxy)phosphoryl)methyl)phosphonic acid] was tested, and the IC50 was 100 to 1000 nM. `CO[P@@](=O)(CP(=O)(O)O)OC[C@H]1O[C@@H](n2nnc3c(NCc4ccccc4Cl)nc(Cl)nc32)[C@H](O)[C@@H]1O` [Example 28, (((S)-(((2R,3S,4R,5R)-5-(5-chloro-7-((2-chlorobenzyl)amino)-3H-[1,2,3]triazolo[4,5-d]pyrimidin-3-yl)-3,4-dihydroxytetrahydrofuran-2-yl)methoxy)(methoxy)phosphoryl)methyl)phosphonic acid] gave an IC50 of 100 to 1000 nM. For `O=P(O)(O)CP(=O)(OCc1ccccc1)OC[C@H]1O[C@@H](n2nnc3c(NCc4ccccc4Cl)nc(Cl)nc32)[C@H](O)[C@@H]1O` (stereo partly drawn) [Example 29, (((benzyloxy)(((2R,3S,4R,5R)-5-(5-chloro-7-((2-chlorobenzyl)amino)-3H-[1,2,3]triazolo[4,5-d]pyrimidin-3-yl)-3,4-dihydroxytetrahydrofuran-2-yl)methoxy)phosphoryl)methyl)phosphonic acid], the IC50 was < 100 nM. For `O=P(O)(O)CP(=O)(OCC1CC1)OC[C@H]1O[C@@H](n2nnc3c(NCc4ccccc4Cl)nc(Cl)nc32)[C@H](O)[C@@H]1O` (stereo partly drawn) [Example 30, (((((2R,3S,4R,5R)-5-(5-chloro-7-((2-chlorobenzyl)amino)-3H-[1,2,3]triazolo[4,5-d]pyrimidin-3-yl)-3,4-dihydroxytetrahydrofuran-2-yl)methoxy) (cyclopropylmethoxy)phosphoryl)methyl) phosphonic acid], the IC50 was < 100 nM. `COP(=O)(CP(=O)(O)O)OC[C@H]1OC(n2nnc3c(NC4CCc5ccccc54)nc(Cl)nc32)[C@H](O)[C@@H]1O` (stereo partly drawn) [Example 34, (((((2R,3S,4R,5S)-5-(5-chloro-7-(((S)-2,3-dihydro-1H-inden-1-yl)amino)-3H-[1,2,3]triazolo[4,5-d]pyrimidin-3-yl)-3,4-dihydroxytetrahydrofuran-2-yl)methoxy)(methoxy)phosphoryl)methyl) phosphonic acid] showed an IC50 of 100 to 1000 nM. With `CN(c1nc(Cl)nc2c1cnn2[C@@H]1O[C@H](COP(=O)(O)CP(=O)(O)O)[C@@H](O)[C@H]1O)[C@@H]1CCc2ccccc21` [Example 38, (((((2R,3S,4R,5R)-5-(6-chloro-4-(((R)-2,3-dihydro-1H-inden-1-yl)(methyl)amino)-1H-pyrazolo[3,4-d]pyrimidin-1-yl)-3,4-dihydroxytetrahydrofuran-2-yl)methoxy)(hydroxy)phosphoryl)methyl)phosphonic acid] the IC50 was < 100 nM. For `COP(=O)(CP(=O)(O)O)OC[C@H]1O[C@@H](n2ncc3c(N(C)C4CCc5ccccc54)nc(Cl)nc32)[C@H](O)[C@@H]1O` (stereo partly drawn) [Example 39, (((((2R,3S,4R,5R)-5-(6-Chloro-4-(((R)-2,3-dihydro-1H-inden-1-yl)(methyl)amino)-1H-pyrazolo[3,4-d]pyrimidin-1-yl)-3,4-dihydroxytetrahydrofuran-2-yl)methoxy)(methoxy)phosphoryl)methyl)phosphonic acid], the IC50 was < 100 nM. For `C[C@@]1(O)[C@@H](COP(=O)(O)CP(=O)(O)O)O[C@@H](n2ncc3c(NCc4ccccc4Cl)nc(Cl)nc32)[C@@H]1O` [Example 40, (((((2R,3S,4R,5R)-5-(6-Chloro-4-((2-chlorobenzyl)amino)-1H-pyrazolo[3,4-d]pyrimidin-1-yl)-3,4-dihydroxy-3-methyltetrahydrofuran-2-yl)methoxy)(hydroxy)phosphoryl)methyl)phosphonic acid], the IC50 was < 100 nM. `O=P(O)(O)CP(=O)(O)OC[C@H]1O[C@@H](n2ncc3c(NCc4ccccc4Cl)nc(Cl)nc32)C[C@@H]1O` [Example 41, (((((2R,3S,5R)-5-(6-chloro-4-((2-chlorobenzyl)amino)-1H-pyrazolo[3,4-d]pyrimidin-1-yl)-3-hydroxytetrahydrofuran-2-yl)methoxy)(hydroxy)phosphoryl)methyl) phosphonic acid] showed an IC50 of 100 to 1000 nM. For `C[C@H](c1ccccc1)N(C)c1nc(Cl)nc2c1cnn2[C@@H]1O[C@H](COP(=O)(O)CP(=O)(O)O)[C@@H](O)[C@H]1O` [Example 42, (((((2R,3S,4R,5R)-5-(6-chloro-4-(methyl((R)-1-phenylethyl)amino)-1H-pyrazolo[3,4-d]pyrimidin-1-yl)-3,4-dihydroxytetrahydrofuran-2-yl)methoxy)(hydroxy)phosphoryl)methyl) phosphonic acid], the IC50 was < 100 nM. With `Cc1nn([C@@H]2O[C@H](COP(=O)(O)CP(=O)(O)O)[C@@H](O)[C@H]2O)c2nc(Cl)nc(N(C)Cc3ccccc3)c12` [Example 43, (((((2R,3S,4R,5R)-5-(4-(benzyl(methyl)amino)-6-chloro-3-methyl-1H-pyrazolo[3,4-d]pyrimidin-1-yl)-3,4-dihydroxytetrahydrofuran-2-yl)methoxy)(hydroxy)phosphoryl)methyl) phosphonic acid] the IC50 was < 100 nM. With `Cc1nn([C@@H]2O[C@H](COP(=O)(O)CP(=O)(O)O)[C@@H](O)[C@H]2O)c2nc(Cl)nc(NCc3ccccc3Cl)c12` [Example 44, (((((2R,3S,4R,5R)-5-(6-chloro-4-((2-chlorobenzyl)amino)-3-methyl-1H-pyrazolo[3,4-d]pyrimidin-1-yl)-3,4-dihydroxytetrahydrofuran-2-yl)methoxy)(hydroxy)phosphoryl)methyl) phosphonic acid] the IC50 was < 100 nM. Work on `C[C@@H](Nc1nc(Cl)nc2c1cnn2[C@@H]1O[C@H](COP(=O)(O)CP(=O)(O)O)[C@@H](O)[C@H]1O)c1ccccc1Cl` [Example 45, (((((2R,3S,4R,5R)-5-(6-chloro-4-(((R)-1-(2-chlorophenyl)ethyl)amino)-1H-pyrazolo[3,4-d]pyrimidin-1-yl)-3,4-dihydroxytetrahydrofuran-2-yl)methoxy)(hydroxy)phosphoryl)methyl) phosphonic acid] yielded an IC50 of 100 to 1000 nM. In the case of `C[C@H](Nc1nc(Cl)nc2c1cnn2[C@@H]1O[C@H](COP(=O)(O)CP(=O)(O)O)[C@@H](O)[C@H]1O)c1ccccc1Cl` [Example 46, (((((2R,3S,4R,5R)-5-(6-chloro-4-(((S)-1-(2-chlorophenyl)ethyl)amino)-1H-pyrazolo[3,4-d]pyrimidin-1-yl)-3,4-dihydroxytetrahydrofuran-2-yl)methoxy)(hydroxy)phosphoryl)methyl) phosphonic acid], the IC50 is reported as > 1000 nM. In the case of `CN(Cc1ccccc1)c1nc(Cl)nc2c1cnn2[C@@H]1O[C@H](COP(=O)(O)CP(=O)(O)O)C[C@H]1O` [Example 47, (((((2S,4R,5R)-5-(4-(benzyl(methyl)amino)-6-chloro-1H-pyrazolo[3,4-d]pyrimidin-1-yl)-4-hydroxytetrahydrofuran-2-yl)methoxy)(hydroxy)phosphoryl)methyl) phosphonic acid], the IC50 is reported as < 100 nM.
